# Tests used:
# [1] = system: IAV; conditions: literature report; cited from earlier work
# [2] = system: m^6A levels in total poly(A)+ RNA; format: cell-based, human; conditions: 50 μM DAA, CEM-SS cells, dot blot
# [3] = system: RSV; conditions: literature report; cited from earlier work
# [4] = system: HIV-1; conditions: literature report; cited from earlier work
# [5] = system: CEM-SS cells
# [6] = system: HIV-1 NL4-3; format: cell-based; conditions: 50 μM DAA, CEM-SS cells, Western at 72 hpi
# [7] = system: m^6A addition to mRNA substrates; conditions: by blocking the hydrolysis of S-adenosylhomocysteine; literature; cited from earlier work
compound,measurement,setting,value
"Nc1nccc2c1ncn2[C@@H]1O[C@H](CO)[C@@H](O)[C@H]1O [DAA, 3-deazaadenosine]",replication of IAV,[1],inhibit the replication
same,m^6A levels in total poly(A)+ RNA,[2],significant decline
same,replication of RSV,[3],inhibit the replication
same,replication of HIV-1,[4],inhibit the replication
same,cell growth or viability,"[5]; 50 μM DAA, four day treatment period, CEM-SS cells",did not reduce cell growth or viability
same,total level of cellular protein (BCA assay) in HIV-1 infected cultures,"[5]; presence or absence of DAA, CEM-SS cell pellets",similar
same,replication of HIV-1,[6],effectively inhibited
same,m^6A addition to mRNA substrates,[7],block m^6A addition
